Test results reported in patent US20230293539A1, “MLL1-WDR5 PROTEIN-PROTEIN INTERACTION INHIBITOR COMPOUNDS AND USES THEREOF” (HUYABIO International, LLC, priority 2022, published 2023).
Like-named read-outs stand apart in the source and are kept apart here.

Experiments:
TEAD2 = TEAD2 (Homo sapiens, UniProt Q15562); assay: Selectivity panel (Table 3); type: binding
Liver S9 stability assay [1] = type: in vitro ADME, dog
Method: (§1) Liver S9 stability assay: Test compounds (1 μM) and positive control were incubated with 5 mM GSH and liver S9 (1 mg protein/ml) from multiple species (including human, monkey, dog, rat and mouse) at 37° C. at 0, 10, 30, and 60 minutes in duplicate. After adding the stop solution, 100 μL of supernatant were analyzed by LC-MS/MS. The % remaining of test compound, T1/2 (min), and CLint (μL/min/mg) were calculated and were reported.

HDAC8 = HDAC8 (Homo sapiens, UniProt Q9BY41); assay: Selectivity panel (Table 3); type: biochemical
BRD2-BD2 = biological target: T1, BRD2-BD2 (Homo sapiens, UniProt P25440); assay: Selectivity panel (Table 3); type: binding
T1 construct: BRD2-BD2

KRAS G12C = KRAS G12C (Homo sapiens, UniProt P01116, G12C); assay: Selectivity panel (Table 3); type: binding
POLQ ATPase = POLQ ATPase (Homo sapiens, UniProt O75417); assay: Selectivity panel (Table 3); type: biochemical
BRD3-BD1 = biological target: T2, BRD3-BD1 (Homo sapiens, UniProt Q15059); assay: Selectivity panel (Table 3); type: binding
T2 construct: BRD3-BD1

Liver S9 stability assay [2] = type: in vitro ADME, mouse
Method: as §1

[3] = PK profile of HBI-2375 in plasma, brain and CSF in SD rats; type: in vivo; conditions: for AUC(0-t) / Cmax / MRT last / Tmax / Kp: rat; for Kp: po, 40 mg/kg, read-out: AUClast Ratio Tissue/Plasma
Method: EXAMPLE 3: PK profile of HBI-2375 (compound of Formula (IIIb) (HYBI-084) in plasma, brain, and cerebrospinal fluid (CSF) in SD rats: This study was conducted in accordance with the Study Protocol and Pharmaron (Ningbo) TSP's Standard Operating Procedures (SOPs) following all regulatory protocols. This study was conducted under non-GLP environment.
The maximal concentrations of HBI-2375 in CSF for males and females were at 1 hr post-dose. The maximal concentrations of HBI-2375 in brain were at 15 min post-dose for males and at 1 hr post-dose for females. The mean values of AUClast for HBI-2375 from high to low were: brain>plasma>CSF for males, and plasma>brain>CSF for females.
Following a single oral gavage administration of HBI-2375 at 40 mg/kg in SD rats, concentrations of HBI-2375 in plasma, brain, and CSF were determined by LC-MS/MS methods. […] The maximal concentrations of HBI-2375 in CSF for males and females were at 1 hr post-dose. The maximal concentrations of HBI-2375 in brain were at 15 min post-dose for males and at 1 hr post-dose for females.

[4] = Metabolite ID in Liver S9; type: in vitro ADME; conditions: HBI-2375 and metabolites in Monkey liver S9
GLS1 = GLS1 (Homo sapiens, UniProt O94925); assay: Selectivity panel (Table 3); type: biochemical
Metabolite ID in plasma [5] = type: in vitro ADME; conditions: HBI-2375 and metabolites in Dog plasma
Metabolite ID in plasma [6] = type: in vitro ADME; conditions: HBI-2375 and metabolites in Human plasma
[7] = Metabolite ID in Liver S9; type: in vitro ADME; conditions: HBI-2375 and metabolites in Mouse liver S9
Metabolite ID in plasma [8] = type: in vitro ADME; conditions: HBI-2375 and metabolites in Monkey plasma
[9] = Metabolite ID in Liver S9; type: in vitro ADME; conditions: HBI-2375 and metabolites in Dog liver S9
BRDT-BD1 = biological target: T3, BRDT-BD1 (Homo sapiens, UniProt Q58F21); assay: Selectivity panel (Table 3); type: binding
T3 construct: BRDT-BD1

hERG = hERG (Homo sapiens, UniProt Q12809); assay: hERG IC50; type: cell-based
HDAC6 = HDAC6 (Homo sapiens, UniProt Q9UBN7); assay: Selectivity panel (Table 3); type: biochemical
[10] = Sprague-Dawley, SD rats, single PO 40 mg/kg, CSF, female
[11] = Sprague-Dawley, SD rats, single PO 40 mg/kg, CSF, male
[12] = Sprague-Dawley, SD rats, single PO 40 mg/kg, brain, female
[13] = Sprague-Dawley, SD rats, single PO 40 mg/kg, brain, male
[14] = Sprague-Dawley, SD rats, single PO 40 mg/kg, plasma, female
[15] = Sprague-Dawley, SD rats, single PO 40 mg/kg, plasma, male
[16] = both sexes, SD rats, single PO 40 mg/kg, brain, mean of male and female
[17] = both sexes, SD rats, single PO 40 mg/kg, plasma, mean of male and female

GLS1, sequence (O94925 73-669 limits assumed, species assumed): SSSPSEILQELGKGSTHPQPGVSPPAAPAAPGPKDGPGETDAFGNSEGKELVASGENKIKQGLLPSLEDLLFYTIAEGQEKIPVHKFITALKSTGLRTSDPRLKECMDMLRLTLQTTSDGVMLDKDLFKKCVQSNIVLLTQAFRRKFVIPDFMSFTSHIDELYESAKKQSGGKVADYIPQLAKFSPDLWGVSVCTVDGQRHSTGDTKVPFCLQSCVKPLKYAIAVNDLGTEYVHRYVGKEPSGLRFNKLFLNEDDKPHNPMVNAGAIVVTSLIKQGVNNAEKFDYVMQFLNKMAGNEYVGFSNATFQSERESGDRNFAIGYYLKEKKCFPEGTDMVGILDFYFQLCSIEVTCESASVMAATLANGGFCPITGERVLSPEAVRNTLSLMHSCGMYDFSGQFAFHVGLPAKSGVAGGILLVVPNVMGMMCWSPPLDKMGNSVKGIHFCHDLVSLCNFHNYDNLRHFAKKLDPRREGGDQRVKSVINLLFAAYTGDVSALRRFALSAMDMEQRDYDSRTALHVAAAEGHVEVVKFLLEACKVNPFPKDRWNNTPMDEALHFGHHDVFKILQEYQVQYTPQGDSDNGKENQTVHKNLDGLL
POLQ ATPase, sequence (O75417 whole entry): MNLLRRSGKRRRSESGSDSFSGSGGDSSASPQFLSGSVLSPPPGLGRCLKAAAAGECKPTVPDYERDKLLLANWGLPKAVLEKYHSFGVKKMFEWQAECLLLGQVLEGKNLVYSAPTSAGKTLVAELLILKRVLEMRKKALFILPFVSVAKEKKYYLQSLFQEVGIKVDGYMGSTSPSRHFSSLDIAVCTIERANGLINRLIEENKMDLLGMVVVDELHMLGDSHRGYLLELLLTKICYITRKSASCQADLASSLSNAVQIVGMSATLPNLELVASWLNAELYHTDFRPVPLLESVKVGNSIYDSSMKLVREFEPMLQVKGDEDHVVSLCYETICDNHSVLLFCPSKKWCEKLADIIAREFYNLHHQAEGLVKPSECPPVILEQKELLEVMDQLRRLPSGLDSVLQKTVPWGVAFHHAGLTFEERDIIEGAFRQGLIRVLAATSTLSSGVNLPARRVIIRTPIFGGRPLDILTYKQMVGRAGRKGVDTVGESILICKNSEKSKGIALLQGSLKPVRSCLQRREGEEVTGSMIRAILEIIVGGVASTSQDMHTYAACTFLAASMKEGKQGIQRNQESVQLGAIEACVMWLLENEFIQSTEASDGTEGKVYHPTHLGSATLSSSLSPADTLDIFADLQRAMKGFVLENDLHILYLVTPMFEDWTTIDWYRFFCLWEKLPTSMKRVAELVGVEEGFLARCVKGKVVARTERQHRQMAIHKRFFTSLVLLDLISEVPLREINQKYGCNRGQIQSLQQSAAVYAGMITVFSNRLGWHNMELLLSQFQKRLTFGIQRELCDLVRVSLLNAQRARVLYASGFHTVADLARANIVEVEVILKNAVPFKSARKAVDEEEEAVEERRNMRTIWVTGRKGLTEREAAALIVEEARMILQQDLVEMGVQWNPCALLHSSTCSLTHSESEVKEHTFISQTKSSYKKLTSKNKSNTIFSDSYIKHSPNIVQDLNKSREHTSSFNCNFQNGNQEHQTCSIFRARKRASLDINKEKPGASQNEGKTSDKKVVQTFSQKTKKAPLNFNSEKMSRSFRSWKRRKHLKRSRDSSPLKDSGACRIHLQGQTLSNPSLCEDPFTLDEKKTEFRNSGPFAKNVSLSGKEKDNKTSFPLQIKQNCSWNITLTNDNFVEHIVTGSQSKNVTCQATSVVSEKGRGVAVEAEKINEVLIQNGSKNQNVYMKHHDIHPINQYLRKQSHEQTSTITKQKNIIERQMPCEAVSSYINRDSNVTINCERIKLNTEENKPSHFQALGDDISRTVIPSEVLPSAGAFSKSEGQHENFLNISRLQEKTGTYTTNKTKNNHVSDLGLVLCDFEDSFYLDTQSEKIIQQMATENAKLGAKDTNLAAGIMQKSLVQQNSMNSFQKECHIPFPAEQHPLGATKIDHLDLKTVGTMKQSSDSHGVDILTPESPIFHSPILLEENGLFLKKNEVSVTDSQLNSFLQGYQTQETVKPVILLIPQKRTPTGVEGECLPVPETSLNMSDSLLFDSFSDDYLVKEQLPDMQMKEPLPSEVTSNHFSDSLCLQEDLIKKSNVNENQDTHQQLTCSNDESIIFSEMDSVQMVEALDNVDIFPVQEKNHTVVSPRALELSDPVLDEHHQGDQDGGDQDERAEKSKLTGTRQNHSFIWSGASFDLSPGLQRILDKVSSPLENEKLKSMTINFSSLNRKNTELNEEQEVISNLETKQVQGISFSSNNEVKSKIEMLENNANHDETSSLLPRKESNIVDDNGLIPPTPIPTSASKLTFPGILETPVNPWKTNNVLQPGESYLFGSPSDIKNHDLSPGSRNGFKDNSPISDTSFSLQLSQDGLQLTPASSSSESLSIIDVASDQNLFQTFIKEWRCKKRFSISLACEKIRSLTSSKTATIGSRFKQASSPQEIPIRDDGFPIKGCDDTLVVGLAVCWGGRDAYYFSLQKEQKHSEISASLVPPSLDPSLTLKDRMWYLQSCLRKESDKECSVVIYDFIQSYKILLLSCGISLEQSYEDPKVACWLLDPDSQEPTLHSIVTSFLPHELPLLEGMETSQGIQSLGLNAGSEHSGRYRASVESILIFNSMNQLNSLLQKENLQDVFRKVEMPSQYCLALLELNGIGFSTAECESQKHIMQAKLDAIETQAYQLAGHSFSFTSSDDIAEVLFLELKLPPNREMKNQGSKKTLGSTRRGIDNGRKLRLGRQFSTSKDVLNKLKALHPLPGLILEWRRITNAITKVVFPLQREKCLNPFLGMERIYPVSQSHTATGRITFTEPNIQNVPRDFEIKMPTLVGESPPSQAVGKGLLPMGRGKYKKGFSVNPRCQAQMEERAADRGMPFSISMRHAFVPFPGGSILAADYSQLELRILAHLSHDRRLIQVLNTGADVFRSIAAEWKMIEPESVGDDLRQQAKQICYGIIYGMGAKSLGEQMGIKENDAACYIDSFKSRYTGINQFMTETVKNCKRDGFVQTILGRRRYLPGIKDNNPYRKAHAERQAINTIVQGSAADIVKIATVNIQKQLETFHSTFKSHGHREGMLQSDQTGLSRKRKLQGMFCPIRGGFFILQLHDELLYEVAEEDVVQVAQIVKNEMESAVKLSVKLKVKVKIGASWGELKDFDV
HDAC8, sequence (Q9BY41 whole entry, species assumed): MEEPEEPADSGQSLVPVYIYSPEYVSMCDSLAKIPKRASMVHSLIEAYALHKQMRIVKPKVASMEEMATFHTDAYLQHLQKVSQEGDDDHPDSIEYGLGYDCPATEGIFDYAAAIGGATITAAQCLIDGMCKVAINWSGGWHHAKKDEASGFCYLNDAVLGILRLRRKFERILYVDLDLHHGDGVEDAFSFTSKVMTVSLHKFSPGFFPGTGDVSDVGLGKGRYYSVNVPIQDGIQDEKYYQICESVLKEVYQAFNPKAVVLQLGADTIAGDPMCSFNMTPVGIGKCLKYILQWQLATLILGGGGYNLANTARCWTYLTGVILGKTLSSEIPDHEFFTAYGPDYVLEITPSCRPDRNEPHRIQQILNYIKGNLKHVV
KRAS G12C, sequence (P01116 1-188 isoform P01116-2 G12C): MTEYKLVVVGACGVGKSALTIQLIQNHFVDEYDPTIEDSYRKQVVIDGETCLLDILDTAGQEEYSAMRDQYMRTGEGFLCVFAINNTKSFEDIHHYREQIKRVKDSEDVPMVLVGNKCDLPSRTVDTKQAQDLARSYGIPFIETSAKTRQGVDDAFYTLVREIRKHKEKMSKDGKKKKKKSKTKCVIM
T1 sequence (P25440 344-453 limits assumed): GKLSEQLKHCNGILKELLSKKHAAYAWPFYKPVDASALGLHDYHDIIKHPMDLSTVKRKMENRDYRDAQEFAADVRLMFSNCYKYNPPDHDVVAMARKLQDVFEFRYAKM
T2 sequence (Q15059 34-140 limits assumed): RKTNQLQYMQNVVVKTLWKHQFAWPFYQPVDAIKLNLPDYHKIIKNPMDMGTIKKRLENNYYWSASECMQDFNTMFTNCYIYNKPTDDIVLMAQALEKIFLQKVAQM
TEAD2, sequence (Q15562 whole entry, species assumed): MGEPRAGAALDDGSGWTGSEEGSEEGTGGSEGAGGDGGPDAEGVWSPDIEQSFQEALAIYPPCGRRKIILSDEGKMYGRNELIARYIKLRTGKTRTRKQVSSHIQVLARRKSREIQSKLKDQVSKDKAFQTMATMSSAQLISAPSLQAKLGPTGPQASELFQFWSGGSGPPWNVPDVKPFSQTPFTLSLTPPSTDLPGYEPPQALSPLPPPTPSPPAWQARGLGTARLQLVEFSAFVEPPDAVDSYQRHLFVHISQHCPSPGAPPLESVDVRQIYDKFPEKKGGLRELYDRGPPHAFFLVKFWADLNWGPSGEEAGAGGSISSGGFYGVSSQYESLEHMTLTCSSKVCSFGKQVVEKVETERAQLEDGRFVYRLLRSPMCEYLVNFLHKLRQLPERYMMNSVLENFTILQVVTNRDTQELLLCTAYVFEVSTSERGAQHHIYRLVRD

Which results are given for `Cc1c(F)c(N)cc(C(=O)Nc2cc(-n3cc(C(=O)N4CCN(C)CC4)nn3)c(F)cc2N2C[C@@H](C)N(C)[C@@H](C)C2)c1Cl` [HYBI-084, 5-amino-2-chloro-4-fluoro-N-(4-fluoro-5-(4-(4-methylpiperazine-1-carbonyl)-1H-1,2,3-triazol-1-yl)-2-((3S,5R)-3,4,5-trimethylpiperazin-1-yl)phenyl)-3-methylbenzamide]?
IC50 (TEAD2): > 1 µM; half-life at 1 μM (Liver S9 stability assay [1]; Dog liver S9): > 2.42 h; microsomal CLint at 1 μM (Liver S9 stability assay [1]; Dog liver S9): < 4.8 µL/min/mg; % Remaining after 60 min incubation (Liver S9 stability assay [1]; Dog liver S9, 1 μM, 5 mM GSH, 37° C.): 92.5%; IC50 (HDAC8): > 1 µM; IC50 (BRD2-BD2): > 1 µM; IC50 (KRAS G12C): > 1 µM; IC50 (POLQ ATPase): > 1 µM; IC50 (BRD3-BD1): > 1 µM; half-life at 1 μM (Liver S9 stability assay [2]; Mouse liver S9): > 2.42 h; microsomal CLint at 1 μM (Liver S9 stability assay [2]; Mouse liver S9): < 4.8 µL/min/mg; % Remaining after 60 min incubation (Liver S9 stability assay [2]; Mouse liver S9, 1 μM, 5 mM GSH, 37° C.): 110%; AUClast Ratio Female/Male ([3]; SD rats, 40 mg/kg PO, CSF): 6.66; C24hr/Cmax Ratio (%) ([3]; SD rats, 40 mg/kg PO, CSF, female): 11.6%; AUClast Ratio Tissue/Plasma ([3]; SD rats, 40 mg/kg PO, CSF/plasma, male, listed as HBI-2375, 40 mg/kg): 0.0111; AUClast Ratio Female/Male ([3]; SD rats, 40 mg/kg PO, brain): 1.54; C24hr/Cmax Ratio (%) ([3]; SD rats, 40 mg/kg PO, brain, female): 3.24%; C24hr/Cmax Ratio (%) ([3]; SD rats, 40 mg/kg PO, brain, male): 4.18%; AUClast from high to low ([3]; SD rats, 40 mg/kg PO, females): plasma>brain>CSF; AUClast from high to low ([3]; SD rats, 40 mg/kg PO, males): brain>plasma>CSF; AUClast Ratio Female/Male ([3]; SD rats, 40 mg/kg PO, plasma): 2.18; C24hr/Cmax Ratio (%) ([3]; SD rats, 40 mg/kg PO, plasma, female): 1.17%; C24hr/Cmax Ratio (%) ([3]; SD rats, 40 mg/kg PO, plasma, male): 0.697%; distribution ([3]; SD rats, single PO 40 mg/kg): distributed to CSF and brain; duration of exposure in CSF and brain ([3]; SD rats, single PO 40 mg/kg): 24 h; in-life observations ([3]; SD rats, single PO 40 mg/kg): no abnormalities were observed; AUClast ([3]; SD rats, single PO 40 mg/kg, brain, female): 3394 ng·h/g; AUClast ([3]; SD rats, single PO 40 mg/kg, brain, male): 2199 ng·h/g; time of maximal concentration ([3]; SD rats, single PO 40 mg/kg, brain, males): 15 min; AUClast ([3]; SD rats, single PO 40 mg/kg, brain, mean of male and female): 2796 ng·h/g; concentration at 24 h ([3]; SD, brain, Single PO Rat 40 mg/kg, read-out: Mean Brain Concentration, Cmin = 24 h): 22.1 ng/g; AUC(0-t) [3, 10]: 124 ng·h/mL; Cmax [3, 10]: 24 ng/mL; MRT last [3, 10]: 8.41 h; Tmax ([3]; Sprague-Dawley, SD rats, single PO 40 mg/kg, CSF, female, read-out: Tmax): 1 h; AUC(0-t) [3, 11]: 18.6 ng·h/mL; Cmax [3, 11]: 7.48 ng/mL; MRT last [3, 11]: 2 h; Tmax ([3]; Sprague-Dawley, SD rats, single PO 40 mg/kg, CSF, male, read-out: Tmax): 1 h; Cmax [3, 12]: 833 ng/g; MRT last [3, 12]: 5.81 h; Tmax ([3]; Sprague-Dawley, SD rats, single PO 40 mg/kg, brain, female, read-out: Tmax): 1 h; Cmax [3, 13]: 413 ng/g; MRT last [3, 13]: 7 h; AUC(0-t) [3, 14]: 3660 ng·h/mL; Cmax [3, 14]: 934 ng/mL; MRT last [3, 14]: 5.11 h; AUC(0-t) [3, 15]: 1680 ng·h/mL; Cmax [3, 15]: 544 ng/mL; MRT last [3, 15]: 4.5 h; Tmax ([3]; both sexes, Sprague-Dawley, SD rats, single PO 40 mg/kg, plasma, males and females, read-out: Tmax (time of maximal concentration) (converted)): 0.25 h; Cmax [3, 16]: 623 ng/g; MRT last [3, 16]: 6.4 h; AUC(0-t) [3, 17]: 2670 ng·h/mL; Cmax [3, 17]: 739 ng/mL; MRT last [3, 17]: 4.8 h; Kp ([3]; female, Sprague-Dawley, CSF/plasma, SD rats, 40 mg/kg PO, CSF/plasma, female): 0.0338; Kp ([3]; female, Sprague-Dawley, brain/plasma, SD rats, 40 mg/kg PO, brain/plasma, female): 0.928; AUC(0-t) ([3]; female, Sprague-Dawley, SD rats, single PO 40 mg/kg, brain, females): 3390 ng·h/mL; crossing of the blood-brain barrier ([3]; general statement): can cross the blood-brain barrier; Kp ([3]; male, Sprague-Dawley, CSF/plasma, SD rats, 40 mg/kg PO, CSF/plasma, male): 0.011; Kp ([3]; male, Sprague-Dawley, brain/plasma, SD rats, 40 mg/kg PO, brain/plasma, male): 1.31; AUC(0-t) ([3]; male, Sprague-Dawley, SD rats, single PO 40 mg/kg, brain, males): 2200 ng·h/mL; Tmax ([3]; SD rats, single PO 40 mg/kg, brain, male, read-out: Tmax): 0.25 h; Tmax ([3]; SD rats, single PO 40 mg/kg, plasma, female, read-out: Tmax): 0.25 h; Tmax ([3]; SD rats, single PO 40 mg/kg, plasma, male, read-out: Tmax): 0.25 h; Relative Abundance (UV Peak Area % Total) [4]: 34.68%; IC50 (GLS1): > 1 µM; Relative Abundance (UV Peak Area % Total) (Metabolite ID in plasma [5]): 97.31%; Relative Abundance (UV Peak Area % Total) (Metabolite ID in plasma [6]): 97.20%; Relative Abundance (UV Peak Area % Total) [7]: 63.02%; Relative Abundance (UV Peak Area % Total) (Metabolite ID in plasma [8]): 97.58%; Relative Abundance (UV Peak Area % Total) [9]: 70.71%; IC50 (BRDT-BD1): > 1 µM; IC50 (hERG): 22.2 µM; IC50 (HDAC6): > 1 µM
